Measurements from patent US4100284A, “1,4-Dioxo- and 4-oxoquinoxaline-2-carboxaldehyde sulfonylhydrazones and certain derivatives thereof” (Pfizer Inc., priority 1977, dated 1978).
≈ marks a conversion by molar mass, not a printed value.

Columns and labels:
Pasteurella multocida = assay: In vitro antibacterial activity, two-fold serial dilution in Brain-Heart Infusion broth (MIC); format: cell-based; details: anaerobic, overnight
Procedure: (§1) The broth is inoculated with bacteria, and with the test compound of formula (I), and then it is incubated overnight under anaerobic conditions. On the next day, the test is read visually. The minimum inhibitory concentration (MIC) of test compound is the lowest concentration which prevents turbidity, i.e., which prevents growth of the microoganism.

E. Coli = assay: as above; format: cell-based; details: Escherichia coli, anaerobic, overnight
Procedure: as §1

Strep. pyogenes = assay: as above; format: cell-based; details: Streptococcus pyogenes, anaerobic, overnight
Procedure: as §1

Staph. aureus = assay: as above; format: cell-based; details: Staphylococcus aureus, anaerobic, overnight
Procedure: as §1

Salmonella cholerasuis [1] = assay: as above; format: cell-based; details: anaerobic, overnight
Procedure: as §1

Salmonella cholerasuis [2] = assay: In vivo protection of mice against a lethal challenge of Salmonella cholerasuis; details: at 25 mg./Kg., multiple dosing
Procedure: The compounds of formula (I) also show antibacterial activity in vivo. In determining such activity, the test compound is administered to mice which have been infected by intraperitoneal injection of a lethal inoculum of pathogenic bacteria. The test compound is administered using a multiple dosing regimen, and using either the oral (PO) or the subcutaneous (SC) route. The inoculum of bacteria varies from one to about ten times the amount needed to kill 100% of the mice, under the conditions of the test. At the end of the test, the activity of a compound is assessed by counting the number of survivors among the treated animals. Results are also given in Table I, wherein the ability of the compound to protect mice against a lethal challenge of Salmonella cholerasuis is presented.

SMILES | MIC (Pasteurella multocida) [µg/mL] | MIC (E. Coli) [µg/mL] | MIC (Strep. pyogenes) [µg/mL] | MIC (Staph. aureus) [µg/mL] | MIC (Salmonella cholerasuis [1]) [µg/mL] | % Survivors vs. Sal. Cholarasuis, PO (Salmonella cholerasuis [2]) [%] | % Survivors vs. Sal. Cholarasuis, SC (Salmonella cholerasuis [2]) [%]
COc1ccc(S(=O)(=O)NN=Cc2c[n+]([O-])c3ccccc3n2)cc1 [N, H, H, 4-CH3 OC6 H4, 4-Oxoquinoxaline-2-carboxaldehyde p-Methoxybenzenesulfonylhydrazone] | 1.56 (≈ 4.35 µM) | 3.12 (≈ 8.72 µM) | 6.25 (≈ 17.4 µM) | 12.5 (≈ 34.9 µM) | 6.25 (≈ 17.4 µM) | – | –
Cc1ccc(S(=O)(=O)NN=Cc2c[n+]([O-])c3ccccc3[n+]2[O-])cc1 [N → O, H, H, 4-CH3 C6 H4, 1,4-Dioxoquinoxaline-2-carboxaldehyde p-Toluenesulfonylhydrazone] | 3.12 (≈ 8.72 µM) | 1.56 (≈ 4.35 µM) | 12.5 (≈ 34.9 µM) | 25 (≈ 69.8 µM) | 6.25 (≈ 17.4 µM) | 30 | 100
O=S(=O)(NN=Cc1c[n+]([O-])c2ccccc2[n+]1[O-])c1ccccc1 [N → O, H, H, C6 H5, 1,4-Dioxoquinoxaline-2-carboxaldehyde Benzenesulfonylhydrazone] | 12.5 (≈ 36.3 µM) | 12.5 (≈ 36.3 µM) | 25 (≈ 72.6 µM) | 100 (≈ 290 µM) | 12.5 (≈ 36.3 µM) | – | –
CS(=O)(=O)NN=Cc1c[n+]([O-])c2ccccc2[n+]1[O-] [N → O, H, H, CH3] | 12.5 (≈ 44.3 µM) | 3.12 (≈ 11.1 µM) | 12.5 (≈ 44.3 µM) | 25 (≈ 88.6 µM) | 6.25 (≈ 22.1 µM) | 10 | 60
O=S(=O)(NN=Cc1c[n+]([O-])c2ccccc2[n+]1[O-])c1ccc(F)cc1 [N → O, H, H, 4-FC6 H4] | 3.12 (≈ 8.62 µM) | 3.12 (≈ 8.62 µM) | 12.5 (≈ 34.5 µM) | 25 (≈ 69 µM) | 6.25 (≈ 17.2 µM) | 10 | 30
Cc1ccc(S(=O)(=O)NN=Cc2c[n+]([O-])c3ccccc3n2)cc1 [N, H, H, 4-CH3 C6 H4, 4-Oxoquinoxaline-2-carboxaldehyde p-Toluenesulfonylhydrazone] | 3.12 (≈ 9.13 µM) | 3.12 (≈ 9.13 µM) | 12.5 (≈ 36.5 µM) | 25 (≈ 73 µM) | 3.12 (≈ 9.13 µM) | 60 | 100
